The term melting point denotes the temperature of the solid-liquid transition.

The subject of data set [1] is Plasmodium berghei NK65 strain. Description: Cure test by oral administration to mice infected with malaria. It is filed as in vivo. Particulars: for inhibition in vivo at 100 mg/kg: Plasmodium berghei; for Effectiveness in the in vivo malaria test, in words: oral administration to mice infected with rodent malaria; for Days of survival: mean days to death minus that of control mice. Here is the method: In this experiment, rodent malaria parasites (the Plasmodium berghei NK65 strain) were used.
The infected blood to be used was subcultured in ICR female SPF mice infected by intraperitoneal or tail vein administration at 4 to 6 weeks old (20 to 26 g). […] Thereafter, based on the number of red cells (cells/ml) and the rate of infection by the protozoans, the blood was diluted with phys'iological saline such that a density of […] malaria parasites/1 ml dose was attained. This was used for infection of uninfected mice (ICR female mice, 5 weeks old) in an amount of 0.2 ml/20 g body weight, through the tail vein (Day-0). The compound used in the test was dissolved in 10% DMSO solution (a mixture of 1 ml of DMSO and 9 ml of 5% glucose solution).
Each group contained 4 mice, and the compound was orally administered to the mice 24 hours after their infection with malaria (Day-1), in an amount calculated such that 100 mg of the compound was administered per 1 kg of the body weight of a mouse. On the other hand, in terms of cases in which the amount was calculated such that 30 mg of the compound was administered per 1 kg of the body weight of a mouse, the oral administration was carried out a total of three times, that is, 24 hours (Day-1), 48 hours (Day-2) and 72 hours (Day-3) after the infection of malaria.
Blood was collected from the tails of each mouse 96 hours (Day-4) and 144 hours (Day-6) after the infection with malaria, and thin blood films were prepared. Under the microscope, the numbers of infection of malaria parasites in the group to which the compound was administered and the control group (to which the compound was not administered) were measured, and the rates of infection with malaria parasites (Parasitemia) were calculated.
From the rate of infection with malaria parasites calculated as above, the cure rate (Suppression) in the case of administration of the drug was calculated according to the following equation. Cure rate: Suppression (%)=(B−A)/B×100
A: Rate of infection with the protozoans in a mouse to which the present test compound was administered
B: Rate of infection with the parasites in a control mouse (to which the compound was not administered) Days of survival: MSD (day)=C−D
C: the average number of days from the date of infection with malaria to the date of death in the mice to which the present test compound was administered
D: The average number of days from the date of infection with malaria to the date of death in the 4 individuals of control mice (to which the compound was not administered)
Further, by observation of changes in the body weight, hair glossiness and the like of each mouse, side effects such as acute toxicity due to administration of the compound were evaluated.

Setting [2] is: po, 96 h, read-out: Cure rate (%) Day-4.
Setting [3] is: po, 144 h, read-out: Cure rate (%) Day-6.
Setting [4] is: 96 h, oral, 100 mg/kg, 1 dose, infected ICR mice, suppression vs control, read-out: Cure rate (%) Day-4.
The mark [5] stands for this setting: 144 h, oral, 100 mg/kg, 1 dose, infected ICR mice, suppression vs control, read-out: Cure rate (%) Day-6.

Structures can show the parent of a compound that is named as a salt. Where two headings read alike, the source gives them in different places.

`CCN(CC)c1cc(C)c2c(c1)OC1=CC(Nc3ccccn3)c3ccccc3C1=N2` (stereo not shown) (as salt: HCl) [Compound 1a, N,N-Diethyl-11-methyl-5-(pyridin-2-ylamino)-5H-benzo[a]phenoxazin-9-amine]: the melting point fell in the range of 167.2 to 168.4 °C.

Compound `CCN(CC)c1cc(C)c2c(c1)OC1=CC(Nc3cccnc3)c3ccccc3C1=N2` (stereo not shown) (as salt: HCl) [Compound 1b, N,N-Diethyl-11methyl-5-(pyridin-3-ylamino)-5H-benzo[a]phenoxazin-9-amine] showed a melting point of 161.6 to 163.1 °C.

In the case of `CCN(CC)c1cc(C)c2c(c1)OC1=CC(Nc3ccncc3)c3ccccc3C1=N2` (stereo not shown) (as salt: HCl) [Compound 1c, N,N-Diethyl-11-methyl-5-(pyridin-4-ylamino)-5H-benzo[a]phenoxazin-9-amine], the melting point is more than 300 °C.

`CCCN(CCC)c1ccc2nc3c4ccccc4c(=Nc4ccncc4)cc-3oc2c1` [Compound 1D, N,N-Dipropyl-5-(pyridin-4-ylimino)-5H-benzo[a]phenoxazin-9-amine] registered a melting point of 215 to 216 °C.

In turn, `CCCCN(CCCC)c1ccc2nc3c4ccccc4c(=Nc4ccncc4)cc-3oc2c1` [Compound 1E, N,N-Dibutyl-5-(pyridin-4-ylimino)-5H-benzo[a]phenoxazin-9-amine] gave a melting point of 188 to 189 °C.

Turning to `CCN(CC)c1ccc2nc3c4ccc(Br)cc4c(=Nc4ccccn4)cc-3oc2c1` [Compound 1F, 3-Bromo-N,N-diethyl-5-(pyridin-2-ylimino)-5H-benzo[a]phenoxazin-9-amine], the melting point lay in the range of 204 to 205 °C.

In the case of `CCN(CC)c1ccc2nc3c4ccccc4/c(=N\c4ccccc4)cc-3oc2c1` [Compound 1U, reference compound], the inhibition in vivo at 100 mg/kg in data set [1] (setting [2]) stood at 0%; in data set [1] (setting [3]) it was 16.8%. Besides, in data set [1], the “Effectiveness in the in vivo malaria test, in words” value (“Effectiveness” for short) was “effectiveness was hardly observed”. In data set [1] (oral, 100 mg/kg, 1 dose), the “Days of survival” value is recorded as 0.8 days.

Consider `CCN(CC)c1ccc2nc3c4ccccc4/c(=N\c4ccc(C)cc4)cc-3oc2c1` [Compound 1V, reference compound], for which the inhibition in vivo at 100 mg/kg in data set [1] (setting [2]) came to 0%; in data set [1] (setting [3]), 11.4%. Besides, in data set [1], the “Effectiveness” value was “effectiveness was hardly observed”. In addition, the “Days of survival” value in data set [1] (oral, 100 mg/kg, 1 dose) is 0.8 days.

For the compound `c1ccc2c(=Nc3ccncc3)cc3oc4cc(N5CCOCC5)ccc4nc-3c2c1` [Compound 1e, 9-Morpholino-5-(pyridin-4-ylimino)-5H-benzo[a]phenoxazine], the melting point was more than 300 °C.

Take `c1ccc2c(=Nc3ccncc3)cc3oc4cc(N5CCCCC5)ccc4nc-3c2c1` [Compound 1f, 9-(Piperidin-1-yl)-5-(pyridin-4-ylimino)-5H-benzo[a]phenoxazine]: the melting point lay within 266.8 to 268.2 °C.

Turning to `CCN(CC)c1ccc2nc3c(cc(N)c4ccccc43)[o+]c2c1` [Nile blue A, reference compound], the inhibition in vivo at 100 mg/kg in data set [1] (setting [4]) was determined as 15%; in data set [1] (setting [5]), 5%. The “Effectiveness” value in data set [1] is “did not show effectiveness”. Moreover, the “Days of survival” value in data set [1] (oral, 100 mg/kg, 1 dose) is listed as 0.3 days.

For `CCN(CC)c1ccc2nc3c4ccccc4c(=O)cc-3oc2c1` [Nile red, reference compound], the inhibition in vivo at 100 mg/kg is 16% in data set [1] (setting [4]) and 3% in data set [1] (setting [5]). For the same compound, the “Effectiveness” value in data set [1] is on record as “did not show effectiveness”. For the same compound, the “Days of survival” value in data set [1] (oral, 100 mg/kg, 1 dose) came out at 0 days.

Take `CCNc1cc2[o+]c3cc(NCC)c4ccccc4c3nc2cc1C` [Oxazin 170 perchlorate, reference compound]: the inhibition in vivo at 100 mg/kg in data set [1] (setting [4]) was 40%; in data set [1] (setting [5]) it was 57%. In addition, the “Effectiveness” value in data set [1] is reported as “did not show effectiveness”. In data set [1] (oral, 100 mg/kg, 1 dose), the “Days of survival” value turned out to be 1.3 days.

Values taken from patent publication US8288374B2, “Medicinal composition containing benzo[a]phenoxazine compound as the active ingredient for prevention or treatment of protozoal disease” (Hoshi University, priority 2008, dated 2012).
